# Key:
# [1] = Half life in HIV1-infected patient; type: ADME, organism-based; details: human, in vivo
# [2] = tested on: Human immunodeficiency virus 1; assay: Antiviral activity against HIV1 infected in MT4 cells; type: functional, organism-based; details: Human immunodeficiency virus 1, MT4
# [3] = tested on: Human immunodeficiency virus 1; assay: Antiviral activity against HIV1 harboring reverse transcriptase K103N/Y181C mutant; type: functional, organism-based
# [4] = tested on: Human immunodeficiency virus 1; assay: Antiviral activity against HIV1 harboring reverse transcriptase L100I/K103N mutant; type: functional, organism-based
# [5] = tested on: Human immunodeficiency virus 1; assay: Antiviral activity against HIV1 harboring reverse transcriptase Y188L mutant; type: functional, organism-based
# [6] = tested on: Human immunodeficiency virus 1; assay: Antiviral activity against HIV1 harboring reverse transcriptase Y181C mutant; type: functional, organism-based
# [7] = tested on: Human immunodeficiency virus 1; assay: Antiviral activity against HIV1 harboring reverse transcriptase K103N mutant; type: functional, organism-based
# [8] = tested on: Human immunodeficiency virus 1; assay: Antiviral activity against HIV1 harboring reverse transcriptase L100I mutant; type: functional, organism-based
# [9] = tested on: Human immunodeficiency virus 1; assay: Antiviral activity against wild type HIV1; type: functional, organism-based
# [10] = Selectivity index, ratio of cytotoxic concentration for human MT4 cells to IC50 for HIV1 3B; type: toxicity, cell-based; details: read-out: Selectivity Index
# [11] = tested on: Human immunodeficiency virus 1; assay: Antiviral activity against HIV1 3B infected in MT4 cells; type: functional, organism-based; details: Human immunodeficiency virus 1, 3B
# [12] = tested on: Human immunodeficiency virus 1; assay: Ratio of nevirapine EC50 to compound EC50 for HIV1; type: functional
# [13] = Half life in plasma; type: ADME, cell-free
# [14] = tested on: Human immunodeficiency virus 1; assay: Antiviral activity against HIV1 infected in human assessed as log reduction in viral load at 800 mg administered QD for 7 days measured on day 8 relative to placebo-control; type: functional
# [15] = tested on: Human immunodeficiency virus 1; assay: Antiviral activity against HIV1 infected in human assessed as log reduction in viral load at 750 mg administered QD for 7 days measured on day 8 relative to placebo-control; type: functional
# [16] = tested on: Human immunodeficiency virus 1; assay: Antiviral activity against HIV1 infected in human assessed as log reduction in viral load at 500 mg administered QD for 7 days measured on day 8 relative to placebo-control; type: functional
# [17] = tested on: Human immunodeficiency virus 1; assay: Antiviral activity against HIV1 3B infected in MT4 cells assessed as inhibition of virus-induced cytopathic effect after 5 days by MTT assay; type: functional, organism-based; details: Human immunodeficiency virus 1, 3B, MT4, 120 h
# [18] = tested on: Human immunodeficiency virus 1; assay: Antiviral activity against HIV1 infected in human assessed as viral copies at 25 to 150 mg; type: functional
# [19] = tested on: Human immunodeficiency virus 1; assay: Antiviral activity against HIV1 infected in human assessed as log reduction in viral load at 25 to 150 mg administered QD for 7 days measured on day 8 relative to placebo-control; type: functional
# [20] = Half life in HIV-infected patient plasma; type: ADME, organism-based; details: human
smiles,measurement,setting,value
O=C(CSc1nnc(Br)n1-c1ccc(C2CC2)c2ccccc12)Nc1ccc(C(=O)[O-])cc1Cl.[K+],half-life,[1],11 h
Cc1cc(S(N)(=O)=O)ccc1NC(=O)COc1ccc(Cl)cc1C(=O)c1cc(F)cc(C(F)(F)F)c1,IC50,[2],0.5 nM
CCN(CC)CCOc1ccc(NC(=O)COc2ccccc2C(=O)c2ccc(OC)cc2)cc1,IC50,[2],10 µg/mL
Cc1cc(C#N)cc(C)c1Oc1nc(Nc2ccc(C#N)cc2)ncc1Br,IC50,[3],25 nM
same,IC50,[4],49 nM
same,IC50,[5],5.9 nM
same,IC50,[6],22 nM
same,IC50,[7],1.4 nM
same,IC50,[8],6.6 nM
same,IC50,[9],1.4 nM
CC(C)=CCN1Cc2cccc3[nH]c(=S)n(c23)C[C@@H]1C,selectivity ratio,[10],31100
same,IC50,[11],28 nM
Cc1cc(C#N)cc(C)c1Oc1ccnc(Nc2ccc(C#N)cc2)n1,IC50,[3],94 nM
same,IC50,[4],798 nM
same,IC50,[5],19 nM
same,IC50,[6],37 nM
same,IC50,[7],2.7 nM
same,IC50,[8],73 nM
same,IC50,[9],1.1 nM
CCN1c2ncc(CCOc3cc[n+]([O-])c4ccccc34)cc2C(=O)N(C)c2cccnc21 [BILR 355],Ratio EC50,[12],>10
same,EC50,[9],0.00026 µg/mL
Cc1cc(C#N)cc(C)c1Oc1nc(Nc2ccc(C#N)cc2)nc(N)c1Br [ETRAVIRINE],half-life,[13],30 h
same,IC50,[3],4.3 nM
same,IC50,[4],19 nM
same,IC50,[9],< 10 nM
CO[P@](=O)(c1cc(C)cc(/C=C/C#N)c1)c1c(C(N)=O)[nH]c2ccc(Cl)cc12 [FOSDEVIRINE],FC,[14],2.1
CCc1nn(CCO)c(CC)c1Oc1cc(C#N)cc(C#N)c1 [LERSIVIRINE],FC,[15],2
same,FC,[16],1.9
CC(=O)c1ccc(C)cc1NC(C(N)=O)c1c(Cl)cccc1Cl (centres undefined) [LOVIRIDE],IC50,[17],13 nM
Cc1cc(/C=C/C#N)cc(C)c1Nc1ccnc(Nc2ccc(C#N)cc2)n1 [RILPIVIRINE],Activity,[18],<50 mL⁻¹
same,FC,[19],1.199
same,half-life,[20],48 h
Cc1cn([C@H]2C[C@H](N=[N+]=[N-])[C@@H](CO)O2)c(=O)[nH]c1=O [ZIDOVUDINE],selectivity ratio,[10],6200
same,IC50,[11],1.5 nM

# Reference: ChEMBL document CHEMBL2169791, “Strategies for the design of HIV-1 non-nucleoside reverse transcriptase inhibitors: lessons from the development of seven representative paradigms” (J Med Chem, 2012)
